Where a chain is given by its changes, count along the chain named. No end group written: not given here.
Tests used:
[1] = target: T1, DPA10103-DPB10401 (Homo sapiens, UniProt P04440+P20036); experiment: Competitive MHC class II binding assay, DPA10103-DPB10401
T1 sequence (P20036 29-260): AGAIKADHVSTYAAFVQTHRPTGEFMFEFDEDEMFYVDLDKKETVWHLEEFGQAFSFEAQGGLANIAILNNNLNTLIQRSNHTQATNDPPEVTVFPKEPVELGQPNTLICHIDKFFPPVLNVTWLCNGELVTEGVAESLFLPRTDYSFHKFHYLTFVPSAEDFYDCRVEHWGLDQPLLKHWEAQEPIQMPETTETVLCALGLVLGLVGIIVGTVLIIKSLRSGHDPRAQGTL
T1 sequence (P04440 30-258): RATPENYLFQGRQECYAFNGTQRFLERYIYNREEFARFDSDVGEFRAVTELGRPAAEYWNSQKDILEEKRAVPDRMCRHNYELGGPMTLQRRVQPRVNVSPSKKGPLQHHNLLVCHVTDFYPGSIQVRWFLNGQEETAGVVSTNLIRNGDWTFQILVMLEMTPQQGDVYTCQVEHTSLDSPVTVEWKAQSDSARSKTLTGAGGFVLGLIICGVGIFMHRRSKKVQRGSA

[2] = target: T2, DPA10103-DPB10201 (Homo sapiens, UniProt P04440+P20036, A65V/A84D/A85E/K98E); experiment: Competitive MHC class II binding assay, DPA10103-DPB10201
T2 sequence (P20036 29-260): T1 sequence (P20036 29-260)
T2 sequence (P04440 30-258 A65V/A84D/A85E/K98E): T1 sequence (P04440 30-258) with A36V, A55D, A56E, K69E

[3] = target: DRB1_0701 (Homo sapiens, UniProt P01903+P01911, A100R/A102G/A103Q/D57E/D86V/E43K/F76Y/K127E/L162R/M171V/P40G/Q125H/Q99D/R33Q/R42Y/R54Q/S133A/S66F/T210M/V115G/Y107V/Y59L/Y89S); experiment: Competitive MHC class II binding assay, DRB1_0701;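 further: displacement of a radiolabeled reference peptide from purified HLA class II protein, with complex-bound radioactivity counted after 2–4 days of incubation and six concentrations spanning a 100,000-fold range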
[4] = target: DRB1_1501 (Homo sapiens, UniProt P01903+P01911); experiment: Competitive MHC class II binding assay, DRB1_1501
[5] = target: DRB1_1101 (Homo sapiens, UniProt P01903+P01911, A100R/A169T/A87E/I96F/K41T/L162R/M171V/P40S/Q125H/Q178H/Q39Y/Q99D/R42S/S66Y/T262R/V115G/W38E); experiment: Competitive MHC class II binding assay, DRB1_1101
[6] = target: DQA10102-DQB10602; experiment: Competitive MHC class II binding assay, DQA10102-DQB10602; conditions: read-out: HLA-DQA10102-DQB10602; positive binding at cutoff 1000 nM
[7] = target: DRB5_0101 (Homo sapiens, UniProt P01903+Q30154); experiment: Competitive MHC class II binding assay, DRB5_0101
[8] = target: DQA10501-DQB10301 (Homo sapiens, UniProt P01909+P01920); experiment: Competitive MHC class II binding assay, DQA10501-DQB10301
[9] = target: DRB1_0901 (Homo sapiens, UniProt P01903+P01911, A100R/A103E/D57H/D86V/F55Y/F60I/F76Y/I96F/K127E/L162R/M171V/P40D/Q125H/Q99R/R33Q/R42F/S133A/S66N/T210M/V115G/W38K/Y107V/Y59G/Y89S); experiment: Competitive MHC class II binding assay, DRB1_0901;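 further: displacement of a radiolabeled probe peptide from purified HLA class II protein, bound counts read after two to four days incubation, six concentrations spanning 100,000-fold, unlabeled probe as reference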
[10] = target: DRB3_0202 (Homo sapiens, UniProt P01903+P79483, A212P/D57E/F66Y/L67A/R103Q/R218S/R40L/S89Y/T80R/V86D/Y55F/Y59H); experiment: Competitive MHC class II binding assay, DRB3_0202
[11] = target: DRB1_0301 (Homo sapiens, UniProt P01903+P01911, A100K/A102G/A103R/A169T/F55Y/I96L/K41T/L162R/M171V/P40S/Q125H/Q178H/Q39Y/R42S/S66N/T106N/T262R/W38E/Y61H); experiment: Competitive MHC class II binding assay, DRB1_0301
[12] = target: DRB1_0405 (Homo sapiens, UniProt P01903+P01911, A100R/A169T/D86S/F76Y/I96L/K127E/L162R/M171V/N62H/P40V/Q125Y/R42H/S133A/S149N/S66Y/V115G/V209L/W38E); experiment: Competitive MHC class II binding assay, DRB1_0405
[13] = target: DRB1_1201 (Homo sapiens, UniProt P01903+P01911, A100R/A169T/D57E/D86V/F55L/H45Y/K41T/L162R/M171V/P40S/Q125H/Q178H/Q39Y/Q99D/R42G/S66L/T262R/V114A/V67L/W38E/Y59H/Y61H/Y89S); experiment: Competitive MHC class II binding assay, DRB1_1201
[14] = target: DRB1_0401 (Homo sapiens, UniProt P01903+P01911, A100K/A169T/F76Y/I96L/K127E/L162R/M171V/N62H/P40V/Q125Y/R42H/S133A/S149N/S66Y/V115G/V209L/W38E); experiment: Competitive MHC class II binding assay, DRB1_0401
[15] = target: DQA10501-DQB10201 (Homo sapiens, UniProt P01909+P01920, A45G/A70V/D89A/E106A/E77G/E98D/H199R/L107V/N214S/P84L/P87L/T103K/T109R/T172A/T60S/V78E/V99I/Y58L/Y62S/Y69I/Y79F); experiment: Competitive MHC class II binding assay, DQA10501-DQB10201
[16] = target: DRB3_0101 (Homo sapiens, UniProt P01903+P79483); experiment: Competitive MHC class II binding assay, DRB3_0101
[17] = target: DRB1_1302 (Homo sapiens, UniProt P01903+P01911, A100E/A169T/K41T/L162R/M171V/P40S/Q125H/Q178H/Q39Y/Q99D/R42S/S66N/T262R/V115G/W38E/Y61H); experiment: Competitive MHC class II binding assay, DRB1_1302;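 further: purified HLA class II protein incubated two to four days with a radiolabeled reference binder and test peptide at six concentrations over a 100,000-fold range, complex-bound radioactivity counted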
[18] = target: DRB1_0101 (Homo sapiens, UniProt P01903+P01911, A100R/D57E/F55L/F60I/F76Y/I96L/L162R/M171V/P40L/Q125E/R42F/V115G/Y59C); experiment: Competitive MHC class II binding assay, DRB1_0101;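 further: competition against a radiolabeled probe peptide (0.1–1 nM) for purified HLA class II protein over 2–4 days, bound counts read after antibody capture, six competitor levels across 100,000-fold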
[19] = target: DRB1_0802 (Homo sapiens, UniProt P01903+P01911, A100R/A103L/A169T/F76Y/H45Y/I96F/K41T/L162R/M171V/P40S/Q125H/Q178H/Q39Y/Q99D/R218S/R42G/S66Y/V115G/W38E); experiment: Competitive MHC class II binding assay, DRB1_0802
[20] = target: DRB4_0101 (Homo sapiens, UniProt P01903+P13762, G164S); experiment: Competitive MHC class II binding assay, DRB4_0101

Measured: IC50

CC[C@H](C)[C@H](NC(=O)[C@H](CCSC)NC(=O)[C@H](CCCNC(=N)N)NC(=O)[C@H](Cc1ccccc1)NC(=O)[C@H](CCCCN)NC(=O)[C@@H](NC(=O)[C@H](CCSC)NC(=O)[C@H](CC(N)=O)NC(=O)[C@H](Cc1ccc(O)cc1)NC(=O)[C@@H](NC(=O)[C@@H](N)CCC(=O)O)[C@@H](C)CC)C(C)C)C(=O)N[C@@H](C)C(=O)NCC(=O)N[C@@H](CCC(N)=O)C(=O)N[C@@H](CCC(=O)O)C(=O)O [pep-117]
< 1000 nM: [1] | [2]

IEYIQHNGVVQESYYRYVAR [pep-049]
not listed: [18] | [19] | [20]
< 1000 nM: all other assays above

CC[C@H](C)[C@H](NC(=O)CNC(=O)[C@@H](N)CCCNC(=N)N)C(=O)N[C@@H](CCC(=O)O)C(=O)N[C@@H](Cc1ccc(O)cc1)C(=O)N[C@H](C(=O)N[C@@H](CCC(N)=O)C(=O)N[C@@H](Cc1c[nH]cn1)C(=O)N[C@@H](CC(N)=O)C(=O)NCC(=O)N[C@H](C(=O)N[C@H](C(=O)N[C@@H](CCC(N)=O)C(=O)N[C@@H](CCC(=O)O)C(=O)N[C@@H](CO)C(=O)N[C@@H](Cc1ccc(O)cc1)C(=O)N[C@@H](Cc1ccc(O)cc1)C(=O)N[C@@H](CCCNC(=N)N)C(=O)N[C@@H](Cc1ccc(O)cc1)C(=O)N[C@H](C(=O)N[C@@H](C)C(=O)N[C@@H](CCCNC(=N)N)C(=O)O)C(C)C)C(C)C)C(C)C)[C@@H](C)CC [pep-123]
not listed: [11] | [14] | [16]
< 1000 nM: all other assays above
